Data from PubChem BioAssay AID328 (DTP/NCI, 2004).
Several values for one entry are separate records, joined by “and”; a condition that tells them apart may be missing. Identical values can stand only once. Inconclusive results and toxic doses are left out.

Test system: BDF1 mice, P388 leukemia ip, median survival T/C
Experiment: NCI In Vivo Anticancer Drug Screen. Data for tumor model P388 Leukemia (intraperitoneal) in B6D2F1 (BDF1) mice
Details: endpoint: median survival time, higher = longer survival
Procedure, shortened: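 Reported as T/C, where T is the survival measurement in dosed animals and C the same measurement in vehicle controls.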

[1] = dose: 100.0 mg/kg/injection, schedule: Q01DX010 (ip), vehicle: saline
[2] = dose: 50.0 mg/kg/injection, schedule: Q04DX003 (ip), vehicle: Klucel (hydroxypropylcellulose) (HPC)
[3] = dose: 100.0 mg/kg/injection, schedule: Q04DX003 (ip), vehicle: Klucel (hydroxypropylcellulose) (HPC)
[4] = dose: 200.0 mg/kg/injection, schedule: Q04DX003 (ip), vehicle: Klucel (hydroxypropylcellulose) (HPC)
[5] = dose: 50.0 mg/kg/injection, schedule: Q01DX009 (ip), vehicle: saline
[6] = dose: 100.0 mg/kg/injection, schedule: Q01DX009 (ip), vehicle: saline
[7] = dose: 200.0 mg/kg/injection, schedule: Q01DX009 (ip), vehicle: saline
[8] = dose: 50.0 mg/kg/injection, schedule: Q01DX009 (ip), vehicle: saline with Tween-80
[9] = dose: 100.0 mg/kg/injection, schedule: Q04DX003 (ip), vehicle: saline with Tween-80
[10] = dose: 400.0 mg/kg/injection, schedule: Q04DX003 (ip), vehicle: Klucel (hydroxypropylcellulose) (HPC)

## C[C@H](N)C(=O)N[C@@H]1[C@H]2C(=C(O)C[C@@H](O)[C@@H]2O)C(=O)O[C@@H]1C
[1]
  T/C: 162 % of control
dose: 133.0 mg/kg/injection, schedule: Q04DX003 (ip), vehicle: saline
  T/C: 112 % of control
dose: 266.0 mg/kg/injection, schedule: Q04DX003 (ip), vehicle: saline
  T/C: 119 % of control
dose: 400.0 mg/kg/injection, schedule: Q01DX010 (ip), vehicle: saline
  T/C: 162 % of control
dose: 532.0 mg/kg/injection, schedule: Q04DX003 (ip), vehicle: saline
  T/C: 120 % of control
dose: 800.0 mg/kg/injection, schedule: Q01DX010 (ip), vehicle: saline
  T/C: 175 % of control
dose: 2428.0 mg/kg/injection, schedule: Q04DX003 (ip), vehicle: saline
  T/C: 166 % of control

## COc1ccccc1-n1c(=O)c(N=Nc2ccccc2)c(O)n(-c2ccccc2C)c1=S
dose: 100.0 mg/kg/injection, schedule: Q01DX001 (ip), vehicle: saline with Tween-80
  T/C: 95 % of control
dose: 200.0 mg/kg/injection, schedule: Q01DX001 (ip), vehicle: saline with Tween-80
  T/C: 95 % of control

## CSC/C(=N\Nc1ccc([N+](=O)[O-])cc1[N+](=O)[O-])c1ccccc1
dose: 1.56 mg/kg/injection, schedule: Q01DX001 (ip), vehicle: saline with Tween-80
  T/C: 100 % of control
dose: 3.13 mg/kg/injection, schedule: Q01DX001 (ip), vehicle: saline with Tween-80
  T/C: 104 % of control
dose: 6.25 mg/kg/injection, schedule: Q01DX001 (ip), vehicle: saline with Tween-80
  T/C: 114 % of control

## N=C(N)SCCC(=O)O
[2]
  T/C: 109 % of control
dose: 100.0 mg/kg/injection, schedule: Q01DX009 (ip), vehicle: Klucel (hydroxypropylcellulose) (HPC)
  T/C: 100 % of control
[3]
  T/C: 100 % of control
dose: 200.0 mg/kg/injection, schedule: Q01DX009 (ip), vehicle: Klucel (hydroxypropylcellulose) (HPC)
  T/C: 110 % of control
[4]
  T/C: 109 % of control
dose: 400.0 mg/kg/injection, schedule: Q01DX009 (ip), vehicle: Klucel (hydroxypropylcellulose) (HPC)
  T/C: 90 % of control

## OCc1ccc(Cl)c(Cl)c1
dose: 100.0 mg/kg/injection, schedule: Q04DX003 (ip), vehicle: other
  T/C: 104 % of control
dose: 200.0 mg/kg/injection, schedule: Q04DX003 (ip), vehicle: other
  T/C: 104 % of control
dose: 400.0 mg/kg/injection, schedule: Q04DX003 (ip), vehicle: other
  T/C: 100 % of control

## CC(C)(N)CNC(C)(C)CO
[5]
  T/C: 95 % of control
[6]
  T/C: 111 % of control
[7]
  T/C: 92 % of control

## CC(O)CN1CCCC1 (stereo not given)
dose: 50.0 mg/kg/injection, schedule: Q04DX003 (ip), vehicle: saline
  T/C: 91 % of control
dose: 100.0 mg/kg/injection, schedule: Q04DX003 (ip), vehicle: saline
  T/C: 104 % of control
dose: 200.0 mg/kg/injection, schedule: Q04DX003 (ip), vehicle: saline
  T/C: 104 % of control

## C1CC[N-]CC1.C1CC[N-]CC1.C1CC[N-]CC1.[Cl][Rh]([Cl])[Cl]
dose: 12.5 mg/kg/injection, schedule: Q01DX009 (ip), vehicle: saline
  T/C: 156 % of control
dose: 25.0 mg/kg/injection, schedule: Q01DX009 (ip), vehicle: saline
  T/C: 157 % of control
[5]
  T/C: 161 % of control and 175 % of control

## Cc1nc2n(c1/C=N/NC(N)=S)CCS2
dose: 25.0 mg/kg/injection, schedule: Q01DX001 (ip), vehicle: Klucel (hydroxypropylcellulose) (HPC)
  T/C: 102 % of control
dose: 50.0 mg/kg/injection, schedule: Q01DX001 (ip), vehicle: Klucel (hydroxypropylcellulose) (HPC)
  T/C: 98 % of control
dose: 100.0 mg/kg/injection, schedule: Q01DX001 (ip), vehicle: Klucel (hydroxypropylcellulose) (HPC)
  T/C: 98 % of control

## Cc1ccc(C)c(CCN)c1
dose: 25.0 mg/kg/injection, schedule: Q01DX009 (ip), vehicle: saline with Tween-80
  T/C: 122 % of control
dose: 25.0 mg/kg/injection, schedule: Q04DX003 (ip), vehicle: saline with Tween-80
  T/C: 100 % of control
[8]
  T/C: 104 % of control
dose: 50.0 mg/kg/injection, schedule: Q04DX003 (ip), vehicle: saline with Tween-80
  T/C: 100 % of control
[9]
  T/C: 100 % of control

## NC(=O)SCC(N)C(=O)O (stereo not given)
[5]
  T/C: 115 % of control
[6]
  T/C: 115 % of control
[7]
  T/C: 118 % of control

## O=C(CNC(=O)n1ccnc1)N/N=C/c1ccccc1O
dose: 50.0 mg/kg/injection, schedule: Q01DX005 (ip), vehicle: saline with Tween-80
  T/C: 102 % of control
dose: 100.0 mg/kg/injection, schedule: Q01DX005 (ip), vehicle: saline with Tween-80
  T/C: 98 % of control
dose: 200.0 mg/kg/injection, schedule: Q01DX005 (ip), vehicle: saline with Tween-80
  T/C: 100 % of control

## CCN(Cc1ccc(Cl)c(Cl)c1)c1ccc2nc(N)nc(N)c2c1C
dose: 1.56 mg/kg/injection, schedule: Q01DX009 (ip), vehicle: water
  T/C: 105 % of control
dose: 6.25 mg/kg/injection, schedule: Q01DX009 (ip), vehicle: water
  T/C: 151 % of control
dose: 12.5 mg/kg/injection, schedule: Q01DX009 (ip), vehicle: water
  T/C: 98 % of control
dose: 12.5 mg/kg/injection, schedule: Q04DX003 (ip), vehicle: Klucel (hydroxypropylcellulose) (HPC)
  T/C: 107 % of control
dose: 12.5 mg/kg/injection, schedule: Q04DX003 (ip), vehicle: water
  T/C: 103 % of control and 118 % of control
dose: 25.0 mg/kg/injection, schedule: Q01DX009 (ip), vehicle: water
  T/C: 89 % of control
dose: 25.0 mg/kg/injection, schedule: Q04DX003 (ip), vehicle: Klucel (hydroxypropylcellulose) (HPC)
  T/C: 109 % of control
[2]
  T/C: 115 % of control
dose: 50.0 mg/kg/injection, schedule: Q04DX003 (ip), vehicle: water
  T/C: 159 % of control and 189 % of control
[3]
  T/C: 88 % of control
dose: 100.0 mg/kg/injection, schedule: Q04DX003 (ip), vehicle: water
  T/C: 109 % of control

## O=[N+]([O-])c1ccc2c(c1)Cc1cc(Br)ccc1-2
[3]
  T/C: 100 % of control
[10]
  T/C: 100 % of control

## Cc1ccc(NS(=O)(=O)c2ccc(F)cc2)cc1C
[3]
  T/C: 109 % of control
[4]
  T/C: 109 % of control
[10]
  T/C: 104 % of control

## O=[N+]([O-])c1cccc2ccc(N/N=C/c3ccccc3O)nc12
dose: 10.0 mg/kg/injection, schedule: Q01DX009 (ip), vehicle: Klucel (hydroxypropylcellulose) (HPC)
  T/C: 96 % of control
dose: 20.0 mg/kg/injection, schedule: Q01DX009 (ip), vehicle: Klucel (hydroxypropylcellulose) (HPC)
  T/C: 122 % of control
dose: 40.0 mg/kg/injection, schedule: Q01DX009 (ip), vehicle: Klucel (hydroxypropylcellulose) (HPC)
  T/C: 111 % of control

## CC1(C)OS2(OC(C)(C)c3ccccc32)c2ccccc21
dose: 50.0 mg/kg/injection, schedule: Q01DX009 (ip), vehicle: other
  T/C: 101 % of control
dose: 100.0 mg/kg/injection, schedule: Q01DX009 (ip), vehicle: other
  T/C: 107 % of control
dose: 200.0 mg/kg/injection, schedule: Q01DX009 (ip), vehicle: other
  T/C: 117 % of control

## Brc1c(-c2ccccc2)cc(-c2ccccc2)cc1-c1ccccc1
[3]
  T/C: 108 % of control
[4]
  T/C: 95 % of control
[10]
  T/C: 95 % of control

## CC(=O)OCC(COC(C)=O)=C1N=C(c2ccccc2)OC1=O
[8]
  T/C: 107 % of control
dose: 100.0 mg/kg/injection, schedule: Q01DX009 (ip), vehicle: saline with Tween-80
  T/C: 96 % of control
[9]
  T/C: 118 % of control
dose: 200.0 mg/kg/injection, schedule: Q01DX009 (ip), vehicle: saline with Tween-80
  T/C: 115 % of control
dose: 400.0 mg/kg/injection, schedule: Q04DX003 (ip), vehicle: saline with Tween-80
  T/C: 118 % of control

## COc1nc(NC2OCC(O)C(O)C2O)c(C(=O)CCl)c(=O)n1C (stereo not given)
dose: 100.0 mg/kg/injection, schedule: Q04DX002 (ip), vehicle: saline with Tween-80
  T/C: 104 % of control
dose: 200.0 mg/kg/injection, schedule: Q04DX002 (ip), vehicle: saline with Tween-80
  T/C: 100 % of control
dose: 400.0 mg/kg/injection, schedule: Q04DX002 (ip), vehicle: saline with Tween-80
  T/C: 100 % of control

## NC(=O)NCCCC(N)C(=O)O (stereo not given)
dose: 50.0 mg/kg/injection, schedule: Q01DX010 (ip), vehicle: saline
  T/C: 94 % of control
[1]
  T/C: 94 % of control
dose: 200.0 mg/kg/injection, schedule: Q01DX010 (ip), vehicle: saline
  T/C: 89 % of control
